Test results as given in patent US20030139362A1, “Methods of treating cognitive decline disease conditions with androgens” (priority 2000, published 2003).

Columns and labels:
female apoE4 mice = settings: for probe trial (platform removed): time searching in the target quadrant: female apoE4 mice, P<0.05, Tukey-Kramer test, placebo-treated mice did not
Description: We tested whether administration of androgens might be successful for improving cognition in apoE4 female mice.

women = settings: literature: Sherwin 1988 (surgically menopausal women); Yaffe 2000 (women with apoE4); cited from earlier work
[1] = plasma hormone levels by radioimmunoassay (RIA); assay type: in vivo; settings: testosterone-treated female mice, subcutaneous Silastic capsule, after the behavioral testing
[2] = six-month-old female apoE4 mice, subcutaneous Silastic capsule, tested eight days after implantation

In the case of C[C@]12CCC(=O)C[C@@H]1CC[C@@H]1[C@@H]2CC[C@]2(C)[C@@H](O)CC[C@@H]12 [dihydrotestosterone], the “probe trial (platform removed): time searching in the target quadrant” value (female apoE4 mice) is reported as “spent significantly more time searching in the target quadrant than in any of the other quadrants” and the “memory retention in the water maze” value (female apoE4 mice; [2]) is reported as “improved memory retention”.
In the case of C[C@]12CC[C@H]3[C@@H](CCC4=CC(=O)CC[C@@]43C)[C@@H]1CC[C@@H]2O [testosterone], the “probe trial (platform removed): time searching in the target quadrant” value (female apoE4 mice) is reported as “spent significantly more time searching in the target quadrant than in any of the other quadrants”, the “memory retention in the water maze” value (female apoE4 mice; [2]) is reported as “improved memory retention” and the “learning in the water maze (hidden platform sessions)” value (female apoE4 mice; six-month-old female apoE4 mice, subcutaneous Silastic capsule, tested eight days after implantation, P<0.05 vs placebo) is reported as “improved learning”. For the same molecule, the “cognition / cognitive function in women” value (women) was “improved cognition in surgically menopausal women” and the plasma testosterone levels [1] was 5.61 ± 0.74 ng/mL.
For Estrogen, the “cognition / cognitive function in women” value (women) is listed as “failed to preserve cognitive function in women with apoE4”.
